± gives the standard deviation of the averaged measurements.
Legend:
Experiment in all cases: level (log10 ratio to DMSO vehicle control); higher = higher biomarker level / cell amount than vehicle control
Perfluorodecanoic acid = compound: O=C(O)C(F)(F)C(F)(F)C(F)(F)C(F)(F)C(F)(F)C(F)(F)C(F)(F)C(F)(F)C(F)(F)F [Perfluorodecanoic acid]; conditions: in DMSO
Description: (§1)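 BioMAP Diversity Plus panel of 12 human primary cell co-culture systems (3C, 4H, LPS, SAg, BT, BF4T, BE3C, CASM3C, HDF3CGF, KF3CT, MyoF, Mphg). Compounds were added 1 h before stimulation and left for 24 h (MyoF 48 h; BT 72 h for soluble read-outs or 6 d for IgG). Biomarkers were read by ELISA, cytotoxicity by SRB, PBMC viability and proliferation by Alamar Blue. Each well value was divided by the mean of 8 DMSO control wells on the same plate and log10 transformed; duplicate blinded samples were tested at 4 concentrations.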

[1] = compound: FC(F)(F)C(F)(F)C(F)(F)C(F)(F)C(F)(F)CCI [1-Iodo-1H,1H,2H,2H-perfluoroheptane]; conditions: in DMSO
Description: as §1

Perfluoro-1-iodohexane = compound: FC(F)(F)C(F)(F)C(F)(F)C(F)(F)C(F)(F)C(F)(F)I [Perfluoro-1-iodohexane]; conditions: in DMSO
Description: as §1

[2] = compound: OCCCC(F)(F)C(F)(F)C(F)(F)C(F)(F)C(F)(F)C(F)(F)C(F)(F)F [7:3 Fluorotelomer alcohol]; conditions: 6700 nM; in DMSO
Description: as §1

[3] = compound: FC(F)(F)C(F)(F)C(F)(F)C(F)(F)C(F)(F)C(F)(F)C(F)(F)C(F)(F)CCS [2-(Perfluorooctyl)ethanthiol]; conditions: in DMSO
Description: as §1

Perfluoropentanoic acid = compound: O=C(O)C(F)(F)C(F)(F)C(F)(F)C(F)(F)F [Perfluoropentanoic acid]; conditions: in DMSO
Description: as §1

[4] = compound: O=C(O)C(F)(F)C(F)(F)C(F)F [4H-Perfluorobutanoic acid]; conditions: in DMSO
Description: as §1

[5] = compound: O=S(=O)(O)C(F)(F)C(F)(F)C(F)(F)C(F)(F)C(F)(F)C(F)(F)F [Perfluorohexanesulfonic acid]; conditions: in DMSO
Description: as §1

Test System	level (log10) (Perfluorodecanoic acid; 6700 nM)	level (log10) (Perfluorodecanoic acid; 20000 nM)	level (log10) ([1]; 6700 nM)	level (log10) ([1]; 20000 nM)	level (log10) ([1]; 60000 nM)	level (log10) (Perfluoro-1-iodohexane; 6700 nM)	level (log10) (Perfluoro-1-iodohexane; 20000 nM)	level (log10) (Perfluoro-1-iodohexane; 60000 nM)	level (log10) [2]	level (log10) ([3]; 6700 nM)	level (log10) ([3]; 20000 nM)	level (log10) (Perfluoropentanoic acid; 6700 nM)	level (log10) (Perfluoropentanoic acid; 20000 nM)	level (log10) (Perfluoropentanoic acid; 60000 nM)	level (log10) ([4]; 6700 nM)	level (log10) ([4]; 20000 nM)	level (log10) ([4]; 60000 nM)	level (log10) ([5]; 6700 nM)	level (log10) ([5]; 20000 nM)	level (log10) ([5]; 60000 nM)
lMphg:CCL2/MCP-1	0.001 ± 0.0042	0.0095 ± 0.023	-0.005 ± 0.021	-0.027 ± 0.016	-0.037 ± 0.0071	-0.021 ± 0.0099	0.0145 ± 0.032	-0.003 ± 0.025	0.001 ± 0.0057	-0.0125 ± 0.0078	-0.003 ± 0.02	0.038 ± 0.0028	0.0155 ± 0.03	0.0015 ± 0.035	-0.024 ± 0.027	-0.0125 ± 0.0035	0.0005 ± 0.021	-0.014 ± 0.0085	0.006 ± 0.037	0.054 ± 0.024
lMphg:CCL3/MIP-1alpha	0.004 ± 0.013	-0.0125 ± 0.049	0.0165 ± 0.032	0.003 ± 0.021	0.0185 ± 0.08	0.033 ± 0.031	0.023 ± 0.0042	0.0285 ± 0.033	-0.0155 ± 0.019	-0.019 ± 0.014	-0.027 ± 0.014	0.008 ± 0.059	-0.006 ± 0.055	0.006 ± 0.055	-0.0075 ± 0.037	0.004 ± 0.016	0.0235 ± 0.011	-0.006 ± 0.04	0.0055 ± 0.037	0.045 ± 0.034
lMphg:CD40	-0.0025 ± 0.039	-0.0385 ± 0.05	-0.004 ± 0.0042	-0.008 ± 0.013	-0.058 ± 0.02	-0.011 ± 0.0071	-0.0265 ± 0.0035	-0.0375 ± 0.013	-0.0135 ± 0.0078	0.0035 ± 0.086	0.017 ± 0.048	0.0225 ± 0.0092	-0.0085 ± 0.0064	0.0175 ± 0.0078	0.0065 ± 0.028	-0.0035 ± 0.039	0.007 ± 0.024	-0.0205 ± 0.037	0.019 ± 0.011	0.0045 ± 0.011
lMphg:CD62E/E-Selectin	-0.026 ± 0.0028	-0.0135 ± 0.011	-0.021 ± 0.067	-0.0215 ± 0.018	-0.028 ± 0.0028	0.005 ± 0.0042	0.018 ± 0.02	0.0305 ± 0.033	-0.005 ± 0.048	-0.013 ± 0.013	-0.0295 ± 0.011	0.012 ± 0.0057	-0.008 ± 0.014	0.003 ± 0.042	-0.012 ± 0.0028	0.0025 ± 0.0092	0.0145 ± 0.0064	0.0145 ± 0.00071	0.019 ± 0.0099	0.0955 ± 0.035
lMphg:CD69	-0.013 ± 0.054	-0.055 ± 0.052	-0.0365 ± 0.083	-0.063 ± 0.072	-0.0405 ± 0.066	-0.031 ± 0.048	-0.0425 ± 0.06	-0.031 ± 0.045	-0.0115 ± 0.011	-0.0425 ± 0.039	-0.069 ± 0.045	-0.0315 ± 0.0092	-0.0525 ± 0.013	0.0175 ± 0.077	0.0185 ± 0.032	-0.0175 ± 0.0021	0.0095 ± 0.019	-0.007 ± 0.027	0.007 ± 0.04	-0.036 ± 0.018
lMphg:CD106/VCAM-1	0.004 ± 0.0014	-0.0145 ± 0.053	0.005	-0.004 ± 0.0042	-0.017 ± 0.011	0.0085 ± 0.032	-0.0035 ± 0.018	-0.003 ± 0.0099	-0.009 ± 0.027	-0.0055 ± 0.0064	-0.0365 ± 0.011	0.005 ± 0.02	0.0125 ± 0.018	0.016 ± 0.0057	0.003 ± 0.0028	0.0125 ± 0.016	0.003 ± 0.014	-0.011 ± 0.044	0.0075 ± 0.0035	0.005 ± 0.011
lMphg:CXCL8/IL-8	0.0415 ± 0.049	0.04 ± 0.023	0.005 ± 0.0057	-0.01 ± 0.0099	0.0495 ± 0.025	-0.0075 ± 0.039	0.0325 ± 0.016	0.0585 ± 0.064	0.01 ± 0.013	-0.012 ± 0.016	0.008 ± 0.016	0.005 ± 0.031	-0.0275 ± 0.013	0.044 ± 0.064	0.024 ± 0.0028	0.0145 ± 0.0021	0.0315 ± 0.011	0.029 ± 0.11	0.052 ± 0.088	0.169 ± 0.18
lMphg:IL-1alpha	0.0085 ± 0.0078	0.013 ± 0.02	0.031 ± 0.021	-0.01 ± 0.018	0.0305 ± 0.016	0.008 ± 0.0057	0.0525 ± 0.019	0.027 ± 0.011	0.017 ± 0.028	-0.033 ± 0.078	-0.0355 ± 0.07	-0.0095 ± 0.022	-0.0195 ± 0.046	0.01 ± 0.05	-0.0055 ± 0.0064	-0.0355 ± 0.0064	0.017 ± 0.035	0.023 ± 0.095	0.012 ± 0.047	0.0305 ± 0.063
lMphg:M-CSF	0.019 ± 0.021	0.0105 ± 0.037	-0.043 ± 0.03	-0.0355 ± 0.012	-0.007 ± 0.013	-0.0095 ± 0.0035	-0.032 ± 0.016	0.0085 ± 0.026	-0.0205 ± 0.037	-0.0075 ± 0.023	0.012 ± 0.0028	-0.028 ± 0.045	0.006 ± 0.035	0.0095 ± 0.049	-0.0115 ± 0.005	-0.015 ± 0.0028	-0.0175 ± 0.0064	-0.0105 ± 0.033	0.0005 ± 0.011	0.0135 ± 0.022
lMphg:SRB	0.009 ± 0.0085	0.004 ± 0.0057	0.006 ± 0.013	-0.011 ± 0.0014	-0.001 ± 0.0057	-0.0055 ± 0.00071	-0.0025 ± 0.0035	0.0035 ± 0.0078	-0.0085 ± 0.0064	-0.008 ± 0.0014	-0.011 ± 0.013	-0.0125 ± 0.0035	-0.0065 ± 0.0092	0.01 ± 0.018	-0.0035 ± 0.019	-0.005 ± 0.0057	0.0025 ± 0.0021	-0.016 ± 0.037	-0.0045 ± 0.0078	-0.0265 ± 0.029
lMphg:SRB-Mphg	0.0065 ± 0.00071	-0.005 ± 0.0085	0.004 ± 0.0028	-0.0015 ± 0.0035	0.009 ± 0.013	0.002 ± 0.0057	-0.006 ± 0.0028	0.0025 ± 0.029	-0.0015 ± 0.0021	0.007 ± 0.0057	0.0105 ± 0.018	-0.0125 ± 0.022	0.001 ± 0.0071	0.006 ± 0.017	-0.009 ± 0.075	-0.015 ± 0.054	0 ± 0.027	0.0015 ± 0.074	0.013 ± 0.0071	0.0255 ± 0.018
lMphg:sIL-10	-0.018 ± 0.055	-0.036 ± 0.028	0.003 ± 0.033	0.01 ± 0.017	-0.114 ± 0.062	-0.0575 ± 0.1	-0.048 ± 0.0042	-0.047 ± 0.0057	-0.0345 ± 0.032	-0.122 ± 0.065	0.0325 ± 0.046	-0.017 ± 0.013	-0.075 ± 0.025	-0.0845 ± 0.05	-0.0495 ± 0.096	-0.0605 ± 0.054	-0.019 ± 0.0014	-0.0345 ± 0.061	-0.073 ± 0.1	-0.239 ± 0.025

From the supplement of paper PMC10331698
